Source: patent EP0754455A1, “PHARMACEUTICAL COMPOSITIONS BASED ON AMINOMETHYLINDOLES AND THEIR THERAPEUTICAL APPLICATION AS NEUROPROTECTORS IN PARKINSON AND ALZHEIMER DISEASES” (CONSEJO SUPERIOR INVESTIGACIONES CIENTIFICAS (CSIC), priority 1995, dated 1996)
Where two headings read alike, the source gives them in different places.

Experiments:
[1] = target: T1, MAO-B (Rattus norvegicus, UniProt P19643); assay: MAO-B inhibition, mitochondrial portion of rat (IC50, time dependence, irreversibility), substrate PEA; type: biochemical, Sprague-Dawley rat; details: MAO-B (lines B..), substrate PEA, rat mitochondria
T1 construct: from tissue; host or cells: Sprague-Dawley rat liver, mitochondrial fraction
T1 sequence (P19643 1-520): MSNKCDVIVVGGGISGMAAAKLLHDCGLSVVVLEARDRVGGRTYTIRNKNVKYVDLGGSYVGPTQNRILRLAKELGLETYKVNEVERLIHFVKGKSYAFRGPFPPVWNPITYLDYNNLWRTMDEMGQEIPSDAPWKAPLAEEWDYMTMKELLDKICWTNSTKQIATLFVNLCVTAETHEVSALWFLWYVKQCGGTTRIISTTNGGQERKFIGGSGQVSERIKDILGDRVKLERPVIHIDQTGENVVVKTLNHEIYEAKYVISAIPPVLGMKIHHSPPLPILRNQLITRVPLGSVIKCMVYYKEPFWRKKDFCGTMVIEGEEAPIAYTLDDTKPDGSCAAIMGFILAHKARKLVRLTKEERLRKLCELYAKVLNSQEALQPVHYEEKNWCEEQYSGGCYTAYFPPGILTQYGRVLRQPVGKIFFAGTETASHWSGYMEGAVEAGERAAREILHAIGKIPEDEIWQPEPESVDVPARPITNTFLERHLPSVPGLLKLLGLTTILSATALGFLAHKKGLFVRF
Description: (§1) The mitochondrial portion of Sprague-Dawley rat was used to determine the MAO-A and MAO-B activity.
(§2) Determinations were made of the comparative MAO-A and MAO-B activity inhibition curves of the various compounds under study at time 0 and 30 min. by measuring the remaining activity to 5-HT and PEA as substrates.

[2] = target: T1, MAO-B; assay: Kinetic parameters of suicide-type inhibition, MAO-B (selectivity K1 MAO-A / K1 MAO-B); type: biochemical, Sprague-Dawley rat; details: selectivity for MAO-B
Text: K1 is the affinity constant of the first stage of the reaction and K1 MAO-A / K1 MAO-B the expression of the selectivity.
(§3) K^1cat is the velocity constant for the formation of the covalent irreversible complex during the second stage of the process. To compare the values of these constants towards the two forms of MAO, we express the inhibition efficacy as the ratio K^1cat/K1. The value of these constants (see Tables 2 and 3), is the result of three different experiments, with their corresponding SEM.

[3] = target: T2, MAO-A (Rattus norvegicus, UniProt P21396); assay: Kinetic parameters of suicide-type inhibition, MAO-A; type: biochemical, Sprague-Dawley rat; details: for K^1cat / K1(10^-3) / K^1cat: MAO-A; for K^1cat / K1(10^-3): inhibition efficacy; for K^1cat: velocity constant for formation of the covalent irreversible complex, ± SEM
T2 construct: human and rat tissue to obtain the isolated forms of monoamine oxidase A and B; from tissue
T2 sequence (P21396 1-526): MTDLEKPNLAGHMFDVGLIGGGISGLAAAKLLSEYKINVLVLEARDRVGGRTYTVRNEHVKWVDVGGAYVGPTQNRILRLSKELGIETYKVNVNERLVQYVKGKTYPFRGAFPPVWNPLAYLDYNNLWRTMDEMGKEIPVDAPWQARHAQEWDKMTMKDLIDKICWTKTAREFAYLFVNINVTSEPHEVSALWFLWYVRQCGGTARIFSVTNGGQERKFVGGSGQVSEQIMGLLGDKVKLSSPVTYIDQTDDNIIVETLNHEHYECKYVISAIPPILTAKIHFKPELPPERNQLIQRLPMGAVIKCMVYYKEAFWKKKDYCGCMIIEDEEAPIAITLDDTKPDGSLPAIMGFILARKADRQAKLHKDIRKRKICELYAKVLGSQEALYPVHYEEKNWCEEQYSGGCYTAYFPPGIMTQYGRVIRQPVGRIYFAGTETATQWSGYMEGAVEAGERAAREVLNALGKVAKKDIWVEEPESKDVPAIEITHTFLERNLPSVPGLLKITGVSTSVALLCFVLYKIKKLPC
Text: Based on the apparent velocity constants of the first order (kapp) obtained for each inhibitor, calculations were made of the K1 and K^1c at (according to the method described by M. Avila et al. 1993, Biochem Pharmac 45, 2231-2237). K1 is the affinity constant of the first stage of the reaction and K1 MAO-A / K1 MAO-B the expression of the selectivity.
as §3

[4] = target: T2, MAO-A; assay: biochemical; type: biochemical, Sprague-Dawley rat
Description: as §1, §2

[5] = target: T3, MAO-A (Mus musculus, UniProt Q64133); assay: Ex vivo inhibition of brain MAO-A after i.p. administration; type: in vivo, C57/BL mice; details: mouse brain homogenate 2 hours after i.p., l-deprenyl 10 mg/Kg, tested compound 4 mg/Kg
T3 construct: the brains homogenised in potassium phosphate buffer 50 mM, pH 7.2; from tissue; host or cells: C57/BL mouse brain homogenate
T3 sequence (Q64133 1-526): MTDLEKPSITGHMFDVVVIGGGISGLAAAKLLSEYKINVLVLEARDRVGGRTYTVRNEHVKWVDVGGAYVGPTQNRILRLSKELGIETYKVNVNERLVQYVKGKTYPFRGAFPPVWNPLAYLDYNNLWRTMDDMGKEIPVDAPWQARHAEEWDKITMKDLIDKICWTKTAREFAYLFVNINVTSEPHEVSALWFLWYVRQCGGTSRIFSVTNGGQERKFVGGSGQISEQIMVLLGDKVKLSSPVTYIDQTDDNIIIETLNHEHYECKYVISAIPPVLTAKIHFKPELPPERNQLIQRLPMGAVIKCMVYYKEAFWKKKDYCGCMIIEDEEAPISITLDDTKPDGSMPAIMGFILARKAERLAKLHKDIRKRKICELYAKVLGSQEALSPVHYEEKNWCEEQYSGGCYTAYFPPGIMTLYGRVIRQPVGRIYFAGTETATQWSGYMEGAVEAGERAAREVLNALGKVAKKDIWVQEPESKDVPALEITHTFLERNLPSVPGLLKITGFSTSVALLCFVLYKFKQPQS
Description: The pharmacological assays were carried out on C57/BL mice. These animals are sensitive to the induction of the symptomatology of Parkinson's disease through the action of MPTP.
The animals were sacrificed by decapitation after 2 hours and the brains homogenised in potassium phosphate buffer 50 mM, pH 7.2. Determinations were made of the MAO-A and MAO-B activity in each case using radiometric methods.

[6] = target: T4, dopamine carrier (Homo sapiens, UniProt Q01959); assay: Dopamine carrier inhibition in purified synaptosomes of human caudate; type: biochemical
T4 construct: This assay was carried out in purified synaptosomes of human caudate; from tissue; host or cells: post-mortem human caudate, purified synaptosomes
T4 sequence (Q01959 whole entry): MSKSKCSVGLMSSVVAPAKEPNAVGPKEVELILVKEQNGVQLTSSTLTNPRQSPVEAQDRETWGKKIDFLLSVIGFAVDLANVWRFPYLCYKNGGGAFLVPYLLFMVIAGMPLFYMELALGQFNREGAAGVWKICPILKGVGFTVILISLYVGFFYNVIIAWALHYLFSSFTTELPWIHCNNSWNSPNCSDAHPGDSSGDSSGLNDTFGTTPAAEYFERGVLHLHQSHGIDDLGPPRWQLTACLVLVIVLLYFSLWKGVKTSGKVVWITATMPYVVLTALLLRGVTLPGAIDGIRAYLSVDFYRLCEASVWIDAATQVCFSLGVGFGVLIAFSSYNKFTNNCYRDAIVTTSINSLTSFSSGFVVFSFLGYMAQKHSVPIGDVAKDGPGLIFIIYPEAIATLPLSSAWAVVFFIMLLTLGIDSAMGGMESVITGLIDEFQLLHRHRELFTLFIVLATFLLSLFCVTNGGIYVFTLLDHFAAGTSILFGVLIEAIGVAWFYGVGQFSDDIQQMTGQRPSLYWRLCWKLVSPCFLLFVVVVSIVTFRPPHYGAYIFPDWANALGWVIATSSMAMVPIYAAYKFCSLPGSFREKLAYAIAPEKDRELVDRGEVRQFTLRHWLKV
Description: This assay was carried out in purified synaptosomes of human caudate obtained using the same method as described by Rodríguez et al. 1987 Biochem Pharmac 36, 974-976.
The studies were carried out with the same inhibitors used in the rat tissue. The dopamine (DA) concentration was 0.1 µM, a value chosen from the kinetic constants obtained.

[7] = IC50 30 min., 30 min incubation
[8] = 0 min incubation, read-out: IC50 0 min
[9] = MAO-A (A..), affinity constant of the first stage, three experiments ± SEM, read-out: K1
[10] = IC50 30 min., MAO-A (lines A..), substrate 5-HT, 30 min incubation, rat mitochondria
[11] = MAO-A (lines A..), substrate 5-HT, 0 min incubation, rat mitochondria, read-out: IC50 0 min
[12] = read-out: IC50 30 min., MAO-A (lines A..), substrate 5-HT, 30 min incubation, rat mitochondria

SMILES | IC50 [1, 7] | IC50 [1, 8] | K1 MAO-A/K1 MAO-B [2] | Ki [3, 9] | K^1cat / K1(10^-3) [3] | K^1cat [3] | IC50 [4, 10] | IC50 [4, 11] | Ki [3] | IC50 [4] | IC50 [4, 12] | remaining activity at 4 mg/kg ([5]; ip, control = 100%) | MAO-A ACTIVITY ([5]; control 485) | IC50 [6]
C=C=CCNCc1cc2cc(OCc3ccccc3)ccc2[nH]1 [FA-75] | 25 nM | 398 nM | 63.0 | 347 nM | 0.47 10^-3 | 0.16 ± 0.02 min⁻¹ | 250 nM | 3980 nM |  |  |  |  |  | 
C=C=CCNCc1cc2cc(OCc3ccccc3)ccc2n1C [FA-97] | 12 nM | 790 nM |  | 18.8 nM | 6.0 10^-3 | 0.12 ± 0.002 min⁻¹ | 25 nM | 199 nM |  |  |  |  |  | 
C=C=CCN(CC=C=C)Cc1cc2cc(OCc3ccccc3)ccc2[nH]1 [FA-78] | 190 nM | 3100 nM | 913.6 | 14100 nM | 0.014 10^-3 | 0.2 ± 0.04 min⁻¹ | 6300 nM | 120000 nM |  |  |  |  |  | 
C=C=CCN(C)Cc1cc2cc(OCc3ccccc3)ccc2n1C [FA-67] |  |  |  |  |  |  |  |  | 26.5 nM | 2500 nM | 190 nM |  |  | 
CC#CCN(C)Cc1cc2cc(OCc3ccccc3)ccc2n1C [FA-66] |  |  |  |  |  |  |  |  | 5.4 nM | 1250 nM | 150 nM |  |  | 
C#CCN(CC#C)Cc1cc2cc(OCc3ccccc3)ccc2n1C [FA-98] | 2500 nM | 19400 nM | 873.5 | 19.8 nM | 5.6 10^-3 | 0.11 ± 0.01 min⁻¹ | 31000 nM |  |  |  |  |  |  | 
CC#CCN(C)Cc1cc2cc(OCc3ccccc3)ccc2[nH]1 [FA-88] |  |  |  |  |  | 0.04 ± 0.001 min⁻¹ |  |  | 13.9 nM | 1580 nM | 150 nM |  |  | 
C#CCN(C)Cc1cc2cc(OCc3ccccc3)ccc2n1C [FA-65] |  |  |  |  |  |  |  |  | 18 nM | 1500 nM | 100 nM |  |  | 
C#CCN(C)Cc1cc2cc(OCc3ccccc3)ccc2[nH]1 [FA-87] |  |  |  |  |  |  |  |  | 54.5 nM | 630 nM | 0.79 nM |  |  | 
CC#CCNCc1cc2cc(OCc3ccccc3)ccc2[nH]1 [FA-74] | 250 nM | 1580 nM | 276.4 | 5250 nM | 0.04 10^-3 | 0.21 ± 0.1 min⁻¹ | 10000 nM | 63000 nM |  |  |  |  |  | 
C#CCN(C)[C@H](C)Cc1ccccc1 [deprenyl, reference compound] |  |  |  |  |  | 0.049 ± 0.01 min⁻¹ |  |  |  |  |  | 52.5% | 255 | 100 nM
CC#CCN(CC#CC)Cc1cc2cc(OCc3ccccc3)ccc2[nH]1 [FA-77] | 10 nM | 25000 nM | 41.5 | 6520 nM | 0.014 10^-3 | 0.09 ± 0.002 min⁻¹ | 5000 nM | 39000 nM |  |  |  |  |  | 
